According to patent publication US20160318866A1, “SUBSTITUTED BIPIPERIDINYL DERIVATIVES” (Bayer Pharma Aktiengesellschaft, priority 2013, published 2016):
Counter-ions that a name gives are not always drawn.

These compounds were tested against T1, human α2C receptor (Homo sapiens, UniProt P18825) (assay: Antagonism against the adrenoreceptor α2C (luminescence, recombinant CHO cell line)). Settings: antagonism against adrenoreceptor α2C; noradrenaline 20 nM; tested up to 10 μM; read-out: IC50.
T1 construct: expressed in transfected cells; host or cells: CHO cells, also recombinantly expressing chimeric G protein Gαqi3 and mitochondrial obelin (mtOb)
T1 sequence (P18825 1-462): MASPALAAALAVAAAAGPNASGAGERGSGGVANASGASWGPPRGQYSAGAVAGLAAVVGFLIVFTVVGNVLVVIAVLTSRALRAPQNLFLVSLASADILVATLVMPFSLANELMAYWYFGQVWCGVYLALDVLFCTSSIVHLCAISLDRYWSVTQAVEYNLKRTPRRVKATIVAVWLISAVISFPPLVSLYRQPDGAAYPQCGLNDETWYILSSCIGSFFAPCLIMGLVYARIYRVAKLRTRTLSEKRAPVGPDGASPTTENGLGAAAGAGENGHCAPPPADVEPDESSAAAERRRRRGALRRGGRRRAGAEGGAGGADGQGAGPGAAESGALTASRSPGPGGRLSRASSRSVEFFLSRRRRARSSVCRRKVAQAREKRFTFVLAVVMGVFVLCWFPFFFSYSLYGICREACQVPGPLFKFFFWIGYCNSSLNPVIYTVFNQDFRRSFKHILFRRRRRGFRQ
Format: cell-based
Summary of the method: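 CHO cells expressing human α2C receptor with chimeric Gαqi3 and mitochondrial obelin, loaded with 2.5 μg/ml coelenterazine for one day at 30 °C.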

Going from `CC1CCCN(C2CCN(C(=O)c3ccc(C(=O)NC(C)(C)c4ccccc4)cc3)CC2)C1` (stereo not drawn) [Example 71, 4-[(3-Methyl-1,4′-bipiperidin-1′-yl)carbonyl]-N-(2-phenylpropan-2-yl)benzamide trifluoroacetic acid salt] to `CC1CCCN(C2CCN(C(=O)c3ccc(C(=O)NC(C)(C)c4ccccc4Cl)cc3)CC2)C1` (stereo not drawn) [Example 78, N-[2-(2-Chlorophenyl)propan-2-yl]-4-[(3-methyl-1,4′-bipiperidin-1′-yl)carbonyl]benzamide trifluoroacetic acid salt], the IC50 falls from 64 nM to 24 nM (2.7-fold). The second is the more potent here.

Going from `CC1CCCN(C2CCN(C(=O)c3ccc(C(=O)NC(C)(C)c4ccc(C(F)(F)F)cc4)cc3)CC2)C1` (stereo not drawn) [Example 72, 4-[(3-Methyl-1,4′-bipiperidin-1′-yl)carbonyl]-N-{2-[4-(trifluoromethyl)phenyl]propan-2-yl}benzamide trifluoroacetic acid salt] to `CC1CCCN(C2CCN(C(=O)c3ccc(C(=O)NC(C)(C)c4ccc(Cl)cc4)cc3)CC2)C1` (stereo not drawn) [Example 77, N-[2-(4-Chlorophenyl)propan-2-yl]-4-[(3-methyl-1,4′-bipiperidin-1′-yl)carbonyl]benzamide trifluoroacetic acid salt], the IC50 falls from 116 nM to 54 nM (2.1-fold).

`CC1CCCN(C2CCN(C(=O)c3ccc(C(=O)NC(C)(C)c4ccc(Cl)c(Cl)c4)cc3)CC2)C1` (stereo not drawn) [Example 73, N-[2-(3,4-Dichlorophenyl)propan-2-yl]-4-[(3-methyl-1,4′-bipiperidin-1′-yl)carbonyl]benzamide trifluoroacetic acid salt] and `CC1CCCN(C2CCN(C(=O)c3ccc(C(=O)NC(C)(C)c4cccc(Cl)c4)cc3)CC2)C1` (stereo not drawn) [Example 79, N-[2-(3-Chlorophenyl)propan-2-yl]-4-[(3-methyl-1,4′-bipiperidin-1′-yl)carbonyl]benzamide trifluoroacetic acid salt] are within 1.5-fold of each other in IC50: 80 nM for the first, 54 nM for the second.

First: Cc1cccnc1CNC(=O)c1ccc(C(=O)N2CCC(C3CCCC(C)C3)CC2)cc1 (stereo not drawn) [Example 74, 4-{[4-(3-Methylcyclohexyl)piperidin-1-yl]carbonyl}-N-[(3-methylpyridin-2-yl)methyl]benzamide trifluoroacetic acid salt]
Second: C[C@@H]1CCCN(C2CCN(C(=O)c3ccc(C(=O)NCc4ncccc4F)cc3)CC2)C1 [Example 98, N-[(3-Fluoropyridin-2-yl)methyl]-4-{[(3R)-3-methyl-1,4′-bipiperidin-1′-yl]carbonyl}benzamide]
The IC50 of the first is 5.7-fold higher: 155 nM for the first, 27 nM for the second.

`CC1CCCN(C2CCN(C(=O)c3ccc(C(=O)NCc4ccnc(Cl)c4)cc3)CC2)C1` (stereo not drawn) [Example 75, N-[(2-Chloropyridin-4-yl)methyl]-4-[(3-methyl-1,4′-bipiperidin-1′-yl)carbonyl]benzamide trifluoroacetic acid salt] and `C[C@@H]1CCCN(C2CCN(C(=O)c3ccc(C(=O)NCc4cc(Cl)ccn4)cc3)CC2)C1` [Example 90, N-[(4-Chloropyridin-2-yl)methyl]-4-{[(3R)-3-methyl-1,4′-bipiperidin-1′-yl]carbonyl}benzamide] are within 1.5-fold of each other in IC50: 36 nM for the first, 28 nM for the second.

Going from `CC1CCCN(C2CCN(C(=O)c3ccc(C(=O)NCc4cccc(Cl)n4)cc3)CC2)C1` (stereo not drawn) [Example 76, N-[(6-Chloropyridin-2-yl)methyl]-4-[(3-methyl-1,4′-bipiperidin-1′-yl)carbonyl]benzamide trifluoroacetic acid salt] to `C[C@@H]1CCCN(C2CCN(C(=O)c3ccc(C(=O)NCc4cccnc4Cl)cc3)CC2)C1` [Example 83, (R)—N-[(2-Chloropyridin-3-yl)methyl]-4-{[(3R)-3-methyl-1,4′-bipiperidin-1′-yl]carbonyl}benzamide trifluoroacetic acid salt], the IC50 falls from 445 nM to 7 nM (64-fold).

Compared with `CC1CCCN(C2CCN(C(=O)c3ccc(C(=O)NC(C)(C)c4cc(Cl)cc(Cl)c4)cc3)CC2)C1` (stereo not drawn) [Example 80, N-[2-(3,5-Dichlorophenyl)propan-2-yl]-4-[(3-methyl-1,4′-bipiperidin-1′-yl)carbonyl]benzamide trifluoroacetic acid salt], `C[C@@H]1CCCN(C2CCN(C(=O)c3ccc(C(=O)NCc4ncc(Cl)cc4C(F)(F)F)cc3)CC2)C1` [Example 91, N-{[5-Chloro-3-(trifluoromethyl)pyridin-2-yl]methyl}-4-{[(3R)-3-methyl-1,4′-bipiperidin-1′-yl]carbonyl}benzamide] is 12-fold lower in IC50: 150 nM for the first, 13 nM for the second. The second is the more potent here.

Compared with `CC1CCCN(C2CCN(C(=O)c3ccc(C(=O)NCc4ccccc4C(F)(F)F)cc3)CC2)C1` (stereo not drawn) [Example 81, 4-[(3-Methyl-1,4′-bipiperidin-1′-yl)carbonyl]-N-[2-(trifluoromethyl)benzyl]benzamide trifluoroacetic acid salt], `C[C@@H]1CCCN(C2CCN(C(=O)c3ccc(C(=O)NCc4cc(C(F)(F)F)c(Cl)cn4)cc3)CC2)C1` [Example 92, N-{[5-Chloro-4-(trifluoromethyl)pyridin-2-yl]methyl}-4-{[(3R)-3-methyl-1,4′-bipiperidin-1′-yl]carbonyl}benzamide] is 2.8-fold higher in IC50: 57 nM for the first, 160 nM for the second.

Going from `C[C@@H]1CCCN(C2CCN(C(=O)c3ccc(C(=O)NCc4ncc(F)cc4F)cc3)CC2)C1` [Example 82, (R)—N-[(3,5-Difluoropyridin-2-yl)methyl]-4-{[(3R)-3-methyl-1,4′-bipiperidin-1′-yl]carbonyl}benzamide trifluoroacetic acid salt] to `COCC1CCCN(C2CCN(C(=O)c3ccc(C(=O)NCc4ncc(F)cc4F)cc3)CC2)C1` (stereo not drawn) [Example 97, N-[(3,5-Difluoropyridin-2-yl)methyl]-4-{[3-(methoxymethyl)-1,4′-bipiperidin-1′-yl]carbonyl}benzamide trifluoroacetic acid salt], the IC50 falls from 15 nM to 10 nM (1.5-fold). The second is the more potent here.

First: C[C@@H]1CCCN(C2CCN(C(=O)c3ccc(C(=O)N(C)Cc4c(F)cccc4F)cc3)CC2)C1 [Example 84, (R)—N-(2,6-Difluorobenzyl)-N-methyl-4-{[(3R)-3-methyl-1,4′-bipiperidin-1′-yl]carbonyl}benzamide trifluoroacetic acid salt]
Second: COCC1CCCN(C2CCN(C(=O)c3ccc(C(=O)N(C)Cc4c(F)cccc4F)cc3)CC2)C1 (stereo not drawn) [Example 96, N-(2,6-Difluorobenzyl)-4-{[3-(methoxymethyl)-1,4′-bipiperidin-1′-yl]carbonyl}-N-methylbenzamide trifluoroacetic acid salt]
The IC50 of the first is 3.3-fold lower: 3 nM for the first, 10 nM for the second.

`C[C@@H]1CCCN(C2CCN(C(=O)c3ccc(C(=O)NC(c4ccc(C(F)(F)F)cc4)C(F)(F)F)cc3)CC2)C1` (stereo partly drawn) [Example 85, 4-{[(3R)-3-Methyl-1,4′-bipiperidin-1′-yl]carbonyl}-N-{2,2,2-trifluoro-1-[4-(trifluoromethyl)phenyl]ethyl}benzamide trifluoroacetic acid salt] and `CC(NC(=O)c1ccc(C(=O)N2CCC(N3CCC[C@@H](C)C3)CC2)cc1)c1ccncc1` (stereo partly drawn) [Example 93, 4-{[(3R)-3-Methyl-1,4′-bipiperidin-1′-yl]carbonyl}-N-[1-(pyridin-4-yl)ethyl]benzamide] are within 1.5-fold of each other in IC50: 200 nM for the first, 135 nM for the second.

Compared with `C[C@@H]1CCCN(C2CCN(C(=O)c3ccc(C(=O)NCc4cccc(OC(F)F)c4)cc3)CC2)C1` [Example 86, (R)—N-[3-(Difluoromethoxy)benzyl]-4-[(3-methyl-1,4′-bipiperidin-1′-yl)carbonyl]benzamide trifluoroacetic acid salt], `C[C@@H]1CCCN(C2CCN(C(=O)c3ccc(C(=O)NCc4c(F)cccc4F)cc3)CC2)C1` [Example 88, N-(2,6-Difluorobenzyl)-4-{[(3R)-3-methyl-1,4′-bipiperidin-1′-yl]carbonyl}benzamide trifluoroacetic acid salt] is 16-fold lower in IC50: 180 nM for the first, 11 nM for the second. The second is the more potent here.

Compared with `CC(NC(=O)c1ccc(C(=O)N2CCC(N3CCC[C@@H](C)C3)CC2)cc1)c1c(F)cccc1F` (stereo partly drawn) [Example 87, N-[1-(2,6-Difluorophenyl)ethyl]-4-{[(3R)-3-methyl-1,4′-bipiperidin-1′-yl]carbonyl}benzamide trifluoroacetic acid salt], `C[C@@H]1CCCN(C2CCN(C(=O)c3ccc(C(=O)NC(CO)c4ccccc4F)cc3)CC2)C1` (stereo partly drawn) [Example 94, N-[1-(2-Fluorophenyl)-2-hydroxyethyl]-4-{[(3R)-3-methyl-1,4′-bipiperidin-1′-yl]carbonyl}benzamide] is 1.6-fold higher in IC50: 16 nM for the first, 25 nM for the second.

First: C[C@@H]1CCCN(C2CCN(C(=O)c3ccc(C(=O)NC(CCO)c4ccccc4F)cc3)CC2)C1 (stereo partly drawn) [Example 89, N-[1-(2-Fluorophenyl)-3-hydroxypropyl]-4-{[(3R)-3-methyl-1,4′-bipiperidin-1′-yl]carbonyl}benzamide trifluoroacetic acid salt]
Second: Cc1ncccc1CNC(=O)c1ccc(C(=O)N2CCC(N3CCC[C@@H](C)C3)CC2)cc1 [Example 95, 4-{[(3R)-3-Methyl-1,4′-bipiperidin-1′-yl]carbonyl}-N-[(2-methylpyridin-3-yl)methyl]benzamide]
The IC50 of the first is 2.8-fold lower: 17 nM for the first, 47 nM for the second.

Going from `C[C@@H]1CCCN(C2CCN(C(=O)c3ccc(C(C)(C)O)c(Cl)c3)CC2)C1` [Example 99, [3-Chloro-4-(2-hydroxypropan-2-yl)phenyl][(3R)-3-methyl-1,4′-bipiperidin-1′-yl]methanone] to `C[C@@H]1CCCN(C2CCN(C(=O)c3ccc(C(=O)NC(C)(C)C)c(Cl)c3)CC2)C1` [Example 100, N-tert-Butyl-2-chloro-4-{[(3R)-3-methyl-1,4′-bipiperidin-1′-yl]carbonyl}benzamide formic acid salt], the IC50 falls from 84 nM to 27 nM (3.1-fold). The second is the more potent here.
